For the series the following is noted: 298 K; 101.33 kPa; Crystal; Buoyancy - hydrostatic balance.

What is called mass density is mass per unit of volume.

± gives the expanded uncertainty stated by the source.

Take `[Al]` [aluminum]: the mass density amounted to 2656 ± 310 kg/m3.
Then `[Mo]` [molybdenum], with 9999 ± 600 kg/m3.

Values taken from the NIST ThermoML archive (doi:10.1016/j.tca.2018.01.022).
